US20060173015A1, “Cyclohexyldiamines as selective alpha 1a/1d adrenoreceptor antagonists for the treatment of benign prostatic hypertrophy and lower urinary tract symptoms” (priority 2004, published 2006)
Blank lines part the entries; values can stand above or below the compound they belong to.

What was measured:
α1a-AR = molecular target: T1, α1a-AR (Homo sapiens, UniProt P35348); test: α1-Adrenergic receptor radio-ligand (125I-HEAT) binding assay, α1a subtype; settings: COS-7 cell membranes, 125I-HEAT
T1 construct: expressed in transfected cells; host or cells: COS-7
T1 sequence (P35348 1-466): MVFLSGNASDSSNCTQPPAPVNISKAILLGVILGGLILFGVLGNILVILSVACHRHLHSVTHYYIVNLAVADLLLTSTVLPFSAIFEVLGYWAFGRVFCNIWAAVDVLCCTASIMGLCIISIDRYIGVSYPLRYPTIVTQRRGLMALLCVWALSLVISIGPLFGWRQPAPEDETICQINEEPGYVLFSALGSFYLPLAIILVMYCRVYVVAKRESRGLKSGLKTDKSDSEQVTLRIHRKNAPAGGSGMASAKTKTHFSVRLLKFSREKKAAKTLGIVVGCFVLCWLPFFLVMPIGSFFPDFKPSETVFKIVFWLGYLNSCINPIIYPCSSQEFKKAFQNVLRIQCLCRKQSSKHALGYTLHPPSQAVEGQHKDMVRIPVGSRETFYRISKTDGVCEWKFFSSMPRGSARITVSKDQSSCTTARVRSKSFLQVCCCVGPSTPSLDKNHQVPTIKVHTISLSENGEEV
Experimental: (§1) α1-Adrenergic Receptor Binding Assay: Preparation of COS Cell Membranes
(§2) Membranes were prepared from COS-7 cells that had been transfected with one of the three α1-AR subtypes by the following method. COS cells from ten 100 mm tissue culture plates were scraped into 5 mL TE (50 mM Tris-HCl, 5 mM EDTA, pH 7.4). The cell suspension was disrupted with a Brinkman Polytron, setting 8, for 10 sec. The disrupted cells were centrifuged at 1000×g for 10 min at 4° C. Supernatants were centrifuged at 34,500×g for 20 min at 4° C. The membrane pellets were suspended in 2 mL TNE (50 mM Tris-HCl, 5 mM EDTA, 150 mM NaCl, pH7.4). An aliquot of the membrane suspension was stored at −70° C. until use. The protein concentration was determined using the BioRad DC protein assay kit following membrane solubilization with Triton X-100.
(§3) Radio-Ligand Binding Assay
(§4) Triplicate determinations of radio-ligand binding in the presence of increasing: concentrations of testing compound were made. The reagents were added to 96-well polypropylene plate wells using the Biomek 1000 robot (Beckman Instruments). Each assay well contained 140 μl TNE, 25 μL ^125I-HEAT (specific activity 2200 Ci/mmol, Dupont-NEN, 50 pM final), 10 μL testing compound dissolved in DMSO (1 pM to 10 μM in half-log increments, final), and 25 μL appropriate α1-AR membrane subtype suspension in TNE (0.5 ng/μL for the α1a and α1b subtypes and 13 ng/μL for the α1d subtype). The plate was incubated at rt for 1 hr. The contents of the wells were filtered through a GF/C membrane Unifilter plate (Packard Instruments) using the Packard Filtermate cell harvester. The filter plates were dried in a vacuum oven for 30 min at 40° C. 25 μL Microscint 20 liquid scintillation fluid (Packard Instuments) was added to each well. The radioactive content was analyzed in the TopCount microplate scintillation counter (Packard Instruments).

α1d-AR = molecular target: T2, α1d-AR (Homo sapiens, UniProt P25100); test: α1-Adrenergic receptor radio-ligand (125I-HEAT) binding assay, α1d subtype; settings: COS-7 cell membranes, 125I-HEAT; read-out: Receptor Binding, Ki α1d-AR
T2 construct: expressed in transfected cells; host or cells: COS-7
T2 sequence (P25100 1-572): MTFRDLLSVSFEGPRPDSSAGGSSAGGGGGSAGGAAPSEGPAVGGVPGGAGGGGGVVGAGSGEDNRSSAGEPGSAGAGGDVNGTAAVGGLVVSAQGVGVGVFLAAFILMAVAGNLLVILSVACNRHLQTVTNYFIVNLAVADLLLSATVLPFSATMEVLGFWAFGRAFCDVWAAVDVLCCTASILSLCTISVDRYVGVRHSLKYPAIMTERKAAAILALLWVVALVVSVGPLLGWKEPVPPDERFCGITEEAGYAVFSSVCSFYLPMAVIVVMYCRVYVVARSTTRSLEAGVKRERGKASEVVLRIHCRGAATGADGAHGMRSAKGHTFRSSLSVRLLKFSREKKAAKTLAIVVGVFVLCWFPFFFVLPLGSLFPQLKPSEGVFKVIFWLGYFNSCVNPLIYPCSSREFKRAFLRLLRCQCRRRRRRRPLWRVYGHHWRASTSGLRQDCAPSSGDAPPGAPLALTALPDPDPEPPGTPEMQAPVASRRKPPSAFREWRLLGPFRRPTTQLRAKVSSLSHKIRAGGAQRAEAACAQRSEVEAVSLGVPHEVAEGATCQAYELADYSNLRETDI
Experimental: as §1, §2, §3
as §4, with “Each assay well contained 140 μl TNE, 25 μL ^125I-HEAT (specific activity 2200 Ci/mmol, Dupont-NEN, 50 pM final), 10 μL testing compound dissolved in DMSO (1 pM to 10 μM in half-log increments, final), and 25 μL appropriate α1-AR membrane subtype suspension in TNE (0.5 ng/μL for the α1a and α1b subtypes and 13 ng/μL for the α1d subtype).” left out

α1b-AR = molecular target: T3, α1b-AR (Homo sapiens, UniProt P35368); test: α1-Adrenergic receptor radio-ligand (125I-HEAT) binding assay, α1b subtype; settings: Receptor Binding, Ki α1b-AR, COS-7 cell membranes, 125I-HEAT
T3 sequence (P35368 1-520): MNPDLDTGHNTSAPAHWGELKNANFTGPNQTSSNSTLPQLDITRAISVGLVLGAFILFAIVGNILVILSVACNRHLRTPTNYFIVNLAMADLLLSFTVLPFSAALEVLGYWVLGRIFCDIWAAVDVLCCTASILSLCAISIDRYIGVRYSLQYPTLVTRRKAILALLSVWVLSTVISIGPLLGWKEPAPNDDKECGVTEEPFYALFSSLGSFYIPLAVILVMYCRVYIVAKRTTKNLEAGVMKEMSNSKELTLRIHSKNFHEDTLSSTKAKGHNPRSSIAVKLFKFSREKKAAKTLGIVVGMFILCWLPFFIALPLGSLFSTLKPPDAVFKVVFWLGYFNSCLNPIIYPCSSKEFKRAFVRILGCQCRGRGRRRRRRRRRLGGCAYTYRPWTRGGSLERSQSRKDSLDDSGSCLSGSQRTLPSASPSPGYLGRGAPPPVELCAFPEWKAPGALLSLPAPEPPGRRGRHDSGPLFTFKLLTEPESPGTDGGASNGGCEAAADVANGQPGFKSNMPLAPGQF

SMILES: CC(C)Oc1ccccc1N1CCN([C@H]2CC[C@@H](NS(=O)(=O)c3cccc(F)c3)CC2)CC1 [Cpd 22, 3-Fluoro-N-cis-{4-[4-(2-isopropoxy-phenyl)-piperazin-1-yl]-cyclohexyl}-benzenesulfonamide]
Ki (α1a-AR): 3.5 nM
Ki (α1d-AR): 3.3 nM
Ki (α1b-AR): 108 nM

SMILES: CC(C)Oc1ccccc1N1CCN([C@H]2CC[C@@H](NS(=O)(=O)c3ccccc3)CC2)CC1 [Cpd 25]
Ki (α1a-AR): 13.7 nM
Ki (α1d-AR): 5.2 nM
Ki (α1b-AR): 111 nM

SMILES: CC(C)Oc1ccccc1N1CCN([C@H]2CC[C@@H](NS(=O)(=O)c3ccccc3[N+](=O)[O-])CC2)CC1 [Cpd 26]
Ki (α1a-AR): 6.3 nM
Ki (α1d-AR): 2.5 nM
Ki (α1b-AR): 201 nM

SMILES: CC(C)Oc1ccccc1N1CCN([C@H]2CC[C@H](NS(=O)(=O)c3ccc(Cl)cc3Cl)CC2)CC1 [Cpd 29, 2,4-Dichloro-N-trans-{4-[4-(2-isopropoxy-phenyl)-piperazine-1-yl]-cyclohexyl}-benzenesulfonamide]
Ki (α1a-AR): 1.6 nM
Ki (α1d-AR): 8.6 nM
Ki (α1b-AR): 596 nM

SMILES: COc1ccc(C)cc1S(=O)(=O)N[C@H]1CC[C@H](N2CCN(c3ccccc3OC(C)C)CC2)CC1 [Cpd 32, N-trans-{4-[4-(2-Isopropoxy-phenyl)-piperazin-1-yl]-cyclohexyl}-2-methoxy-5-methyl-benzenesulfonamide]
Ki (α1a-AR): 0.9 nM
Ki (α1d-AR): 31 nM
Ki (α1b-AR): 218 nM

SMILES: CC(C)Oc1ccccc1N1CCN([C@H]2CC[C@H](NS(=O)(=O)c3ccccc3S(C)(=O)=O)CC2)CC1 [Cpd 33, N-trans-{4-[4-(2-Isopropoxy-phenyl)-piperazin-1-yl]-cyclohexyl}-2-methanesulfonyl-benzenesulfonamide]
Ki (α1a-AR): 12.5 nM
Ki (α1d-AR): 2.8 nM
Ki (α1b-AR): 118 nM

SMILES: CC(C)Oc1ccccc1N1CCN([C@H]2CC[C@H](NS(=O)(=O)c3ccc(C(F)(F)F)cc3)CC2)CC1 [Cpd 37, N-trans-{4-[4-(2-Isopropoxy-phenyl)-piperazin-1-yl]-cyclohexyl}-4-trifluoromethyl-benzenesulfonamide]
Ki (α1a-AR): 67 nM
Ki (α1d-AR): 65 nM
Ki (α1b-AR): 931 nM

SMILES: CC(C)Oc1ccccc1N1CCN([C@H]2CC[C@H](NS(=O)(=O)c3ccc(F)cc3)CC2)CC1 [Cpd 38, 4-Fluoro-N-trans-{4-[4-(2-isopropoxy-phenyl)-piperazin-1-yl]-cyclohexyl}-benzenesulfonamide]
Ki (α1a-AR): 1.3 nM
Ki (α1d-AR): 36 nM
Ki (α1b-AR): 301 nM

SMILES: Cc1c(Cl)cccc1S(=O)(=O)N[C@H]1CC[C@H](N2CCN(c3ccccc3OC(C)C)CC2)CC1 [Cpd 39, 3-Chloro-N-trans-{4-[4-(2-isopropoxy-phenyl)-piperazin-1-yl]-cyclohexyl}-2-methyl-benzenesulfonamide]
Ki (α1a-AR): 1.1 nM
Ki (α1d-AR): 5.4 nM
Ki (α1b-AR): 554 nM

The next lines start with the values.

Ki (α1a-AR): 8.9 nM
Ki (α1d-AR): 27.3 nM
Ki (α1b-AR): 441 nM
SMILES: CC(C)Oc1ccccc1N1CCN([C@H]2CC[C@H](NS(=O)(=O)c3cc(Cl)ccc3F)CC2)CC1 [Cpd 40, 5-Chloro-2-fluoro-N-trans-{4-[4-(2-isopropoxy-phenyl)-piperazin-1-yl]-cyclohexyl}-benzenesulfonamide]

Ki (α1a-AR): 18.1 nM
Ki (α1d-AR): 246 nM
Ki (α1b-AR): 844 nM
SMILES: CC(C)Oc1ccccc1N1CCN([C@H]2CC[C@H](NS(=O)(=O)c3ccccc3C(F)(F)F)CC2)CC1 [Cpd 41, N-trans-{4-[4-(2-Isopropoxy-phenyl)-piperazin-1-yl]-cyclohexyl}-2-trifluoromethyl-benzenesulfonamide]

Ki (α1a-AR): 6.6 nM
Ki (α1d-AR): 72 nM
Ki (α1b-AR): 2300 nM
SMILES: CC(C)Oc1ccccc1N1CCN([C@H]2CC[C@H](NS(=O)(=O)c3ccc(F)c(Cl)c3)CC2)CC1 [Cpd 42, 3-Chloro-4-fluoro-N-trans-{4-[4-(2-isopropoxy-phenyl)-piperazin-1-yl]-cyclohexyl}-benzenesulfonamide]

Ki (α1a-AR): 11 nM
Ki (α1d-AR): 66 nM
Ki (α1b-AR): 714 nM
SMILES: COc1ccc(F)cc1S(=O)(=O)N[C@H]1CC[C@H](N2CCN(c3ccccc3OC(C)C)CC2)CC1 [Cpd 43, 5-Fluoro-N-trans-{4-[4-(2-isopropoxy-phenyl)-piperazin-1-yl]-cyclohexyl}-2-methoxy-benzenesulfonamide]

Ki (α1a-AR): 100 nM
Ki (α1d-AR): 111 nM
Ki (α1b-AR): 1250 nM
SMILES: CC(C)Oc1ccccc1N1CCN([C@H]2CC[C@H](NS(=O)(=O)c3ccc(OC(F)(F)F)cc3)CC2)CC1 [Cpd 45, N-trans-{4-[4-(2-Isopropoxy-phenyl)-piperazin-1-yl]-cyclohexyl}-4-trifluoromethoxy-benzenesulfonamide]

Ki (α1a-AR): 1.5 nM
Ki (α1d-AR): 16 nM
Ki (α1b-AR): 193 nM
SMILES: Cc1ccc(S(=O)(=O)N[C@H]2CC[C@H](N3CCN(c4ccccc4OC(C)C)CC3)CC2)cc1Cl [Cpd 46, 3-Chloro-N-trans-{4-[4-(2-isopropoxy-phenyl)-piperazin-1-yl]-cyclohexyl}-4-methyl-benzenesulfonamide]

Ki (α1a-AR): 1 nM
Ki (α1d-AR): 22 nM
Ki (α1b-AR): 173 nM
SMILES: COc1ccc([N+](=O)[O-])cc1S(=O)(=O)N[C@H]1CC[C@H](N2CCN(c3ccccc3OC(C)C)CC2)CC1 [Cpd 47, N-trans-{4-[4-(2-Isopropoxy-phenyl)-piperazin-1-yl]-cyclohexyl}-2-methoxy-5-nitro-benzenesulfonamide]

Ki (α1a-AR): 24.5 nM
Ki (α1d-AR): 1.5 nM
Ki (α1b-AR): 258 nM
SMILES: COc1ccc(C(F)(F)F)cc1S(=O)(=O)N[C@H]1CC[C@H](N2CCN(c3ccccc3OC(C)C)CC2)CC1 [Cpd 48, N-trans-{4-[4-(2-Isopropoxy-phenyl)-piperazin-1-yl]-cyclohexyl}-2-methoxy-5-trifluoromethyl-benzenesulfonamide]

Ki (α1a-AR): 0.73 nM
Ki (α1d-AR): 24.5 nM
Ki (α1b-AR): 545 nM
SMILES: CC(C)Oc1ccccc1N1CCN([C@H]2CC[C@H](NS(=O)(=O)c3cccc(F)c3)CC2)CC1 [Cpd 50, 3-Fluoro-N-trans-{4-[4-(2-isopropoxy-phenyl)-piperazin-1-yl]-cyclohexyl}-benzenesulfonamide]
